What was measured:
[1] = test system: ADP-induced platelet aggregation; test: in vitro anti-platelet aggregation induced by ADP (platelet-rich plasma, aggregometer); type: cell-based; conditions: Homo sapiens; platelet-rich plasma of healthy volunteers, inductive agent ADP (10 uM), 37° C.
From the text: (§1) The inventor conducted the anti-platelet aggregation activity screening for the compounds of the present invention, carried out the anti-platelet aggregation test by using the blood platelet which was closed to human physiological state and was not washed with water, and conducted the activity test of the in vitro anti-platelet aggregation induced by ADP, and also the activity test of the in vitro anti-platelet aggregation induced by AA (arachidonic acid) for some compounds. The present invention firstly discloses the activity test of the in vitro anti-platelet aggregation induced by AA conducted with said type of compounds.
(§2) The anti-platelet aggregation test of the compounds was conducted by the aggregometer (Model 400VS, Chrono-Log, Haverston, Pa.) from Chrono-Log Corp. ADP, AA (arachidonic acid), DMSO and trisodium citrate were purchased from Sigama.
(§3) The fasting venous blood of the subjects was collected, and placed into a 50 mL sampling tube containing 3.8% sodium citrate, and mixed homogeneously in a ratio of 1:9 (v/v) for anticoagulation, and centrifugalized at 300 rpm/min for 20 min.
(§4) The supernatant was taken to obtain platelet-rich blood plasma (PRP). The residual blood was then centrifugalized at 900 rpm/min for 10 min, and the supernatant fluid was taken to obtain platelet-poverty blood plasma (PPP). The analysis of platelet aggregation was conducted by using the aggregometer (Chrono-Log Corp.), wherein PRP and PPP were respectively added to two turbidimetric tubes. In the aggregometer, platelet-poverty blood plasma (PPP) was used as the control group. DMSO was used as the negative control. The turbidimetric tubes were incubated at 37° C. for 3 min. The PRP was stirred with a stirring rod at 900 rpm/min for 10-20 s, and the inductive agent ADP (10 uM) or AA (0.5 mM) was added to PRP, and start to record the aggregated wave patterns. The chart speed of the recorder (Model 707, Chrono-Log, Haverston, Pa., USA) was set up to be 1 cm min^−1, and the aggregation reaction was recorded for not less than 3 min. Finally, the apparatus automatically delineated the aggregation curve and calculated the results, i.e. maximum platelet aggregation rate. When the platelet aggregation was lower than 50% of the control group, the IC50 of the compound was calculated.

[2] = test system: AA (arachidonic acid)-induced platelet aggregation; test: in vitro anti-platelet aggregation induced by AA (arachidonic acid) (platelet-rich plasma, aggregometer); type: cell-based; conditions: Homo sapiens; platelet-rich plasma of healthy volunteers, inductive agent AA (0.5 mM), 37° C.
From the text: as §1, §2, §3, §4

Compound `CCSc1nc(NC(C)c2ccccc2)c2ncn([C@@H]3O[C@H](CO)[C@@H](O)[C@H]3O)c2n1` (stereo partly drawn) [Example 16, 2-ethylthio-6-(1-phenylethyl)amino-9-β-D-ribofuranosyl purine] has an IC50 [1] of 197 µM.
For `COc1ccc(CCNc2nc(SC)nc3c2ncn3[C@@H]2O[C@H](CO)[C@@H](O)[C@H]2O)cc1` [Example 22, 2-methylthio-6-([4-methoxylphenylethyl]-amino)-9-β-D-ribofuranosyl purine], the IC50 [1] was 153 µM.
`CSc1nc(NCCc2ccccc2)c2ncn([C@@H]3O[C@H](CO)[C@@H](O)[C@H]3O)c2n1` [Example 18, 2-methylthio-6-phenylethylamino-9-β-D-ribofuranosyl purine] gave an IC50 [1] of 36 µM and an IC50 [2] of 3 µM.
`CCCCSc1nc(NCCc2ccccc2)c2ncn([C@@H]3O[C@H](CO)[C@@H](O)[C@H]3O)c2n1` [Example 21, 2-butylthio-6-phenylethylamino-9-β-D-ribofuranosyl purine] was tested, and the IC50 [1] was 59 µM and the IC50 [2] was greater than 300 µM.
Work on `CCCCSc1nc(NC2CCCCC2)c2ncn([C@@H]3O[C@H](CO)[C@@H](O)[C@H]3O)c2n1` [Example 12, 2-butylthio-6-cyclohexylamino-9-β-D-ribofuranosyl purine] yielded an IC50 [1] of 83 µM.
For `CCCSc1nc(NCc2ccc(OC)cc2)c2ncn([C@@H]3O[C@H](CO)[C@@H](O)[C@H]3O)c2n1` [Example 17, 2-propylthio-6-([4-methoxylbenzyl]amino)-9-β-D-ribofuranosyl purine], the IC50 [1] was 181 µM.
Compound `CCSc1nc(NCCc2ccccc2)c2ncn([C@@H]3O[C@H](CO)[C@@H](O)[C@H]3O)c2n1` [Example 19, 2-ethylthio-6-phenylethylamino-9-β-D-ribofuranosyl purine] has an IC50 [1] of 29 µM and an IC50 [2] of 30 µM.
`CCCSc1nc(NCCc2ccccc2)c2ncn([C@@H]3O[C@H](CO)[C@@H](O)[C@H]3O)c2n1` [Example 20, 2-propylthio-6-phenylethylamino-9-β-D-ribofuranosyl purine] showed an IC50 [1] of 52 µM and an IC50 [2] of 44 µM.
`CCCSc1nc(NC2CCCCC2)c2ncn([C@@H]3O[C@H](CO)[C@@H](O)[C@H]3O)c2n1` [Example 10, 2-propylthio-6-cyclohexylamino-9-β-D-ribofuranosyl purine] showed an IC50 [1] of 151 µM.
Compound `CCSc1nc(NCc2ccccc2)c2ncn([C@@H]3O[C@H](CO)[C@@H](O)[C@H]3O)c2n1` [Example 13, 2-ethylthio-6-benzylamino-9-β-D-ribofuranosyl purine] has an IC50 [1] of 176 µM.
`CC(C)Sc1nc(NC2CCCCC2)c2ncn([C@@H]3O[C@H](CO)[C@@H](O)[C@H]3O)c2n1` [Example 11, 2-isopropylthio-6-cyclohexylamino-9-β-D-ribofuranosyl purine] gave an IC50 [1] of 187 µM.
In the case of `CCCSc1nc(NCCc2cccc(OC)c2)c2ncn([C@@H]3O[C@H](CO)[C@@H](O)[C@H]3O)c2n1` [Example 27, 2-propylthio-6-([3-methoxylphenylethyl]amino)-9-β-D-ribofuranosyl purine], the IC50 [1] is reported as 69 µM.
`CCCSc1nc(NCc2ccccc2)c2ncn([C@@H]3O[C@H](CO)[C@@H](O)[C@H]3O)c2n1` [Example 14, 2-propylthio-6-benzylamino-9-β-D-ribofuranosyl purine] gave an IC50 [1] of 216 µM.
`CCCCSc1nc(NCc2ccccc2)c2ncn([C@@H]3O[C@H](CO)[C@@H](O)[C@H]3O)c2n1` [Example 15, 2-butylthio-6-benzylamino-9-β-D-ribofuranosyl purine] was tested, and the IC50 [1] was 202 µM.
In the case of `CCSc1nc(NCCc2ccc(OC)cc2)c2ncn([C@@H]3O[C@H](CO)[C@@H](O)[C@H]3O)c2n1` [Example 23, 2-ethylthio-6-([4-methoxylphenylethyl]amino)-9-β-D-ribofuranosyl purine], the IC50 [1] is reported as 89 µM.
For `CCCCCCNc1nc(SCCC)nc2c1ncn2[C@@H]1O[C@H](CO)[C@@H](O)[C@H]1O` [Example 8, 2-propylthio-6-n-hexylamino-9-β-D-ribofuranosyl purine], the IC50 [1] was 102 µM.
Work on `CCCSc1nc(NCCc2ccc(OC)cc2)c2ncn([C@@H]3O[C@H](CO)[C@@H](O)[C@H]3O)c2n1` [Example 24, 2-propylthio-6-([4-methoxylphenylethyl]amino)-9-β-D-ribofuranosyl purine] yielded an IC50 [1] of 267 µM.
Compound `CCSc1nc(NC2CCCCC2)c2ncn([C@@H]3O[C@H](CO)[C@@H](O)[C@H]3O)c2n1` [Example 9, 2-ethylthio-6-cyclohexylamino-9-β-D-ribofuranosyl purine] has an IC50 [1] of 104 µM.
With `CCCCSc1nc(NCCc2ccc(OC)cc2)c2ncn([C@@H]3O[C@H](CO)[C@@H](O)[C@H]3O)c2n1` [Example 25, 2-butylthio-6-([4-methoxylphenylethyl]amino)-9-β-D-ribofuranosyl purine] the IC50 [1] was 93 µM.
Work on `CCSc1nc(NCCc2cccc(OC)c2)c2ncn([C@@H]3O[C@H](CO)[C@@H](O)[C@H]3O)c2n1` [Example 26, 2-ethylthio-6-([3-methoxylphenylethyl]amino)-9-β-D-ribofuranosyl purine] yielded an IC50 [1] of 38 µM and an IC50 [2] greater than 300 µM.
